In patent US12649739B2, “Imidazoquinoline compound having anti-inflammatory, antifugal, antiparasitic, and anticancer activity” (PHARMA CINQ, LLC, priority 2020, dated 2026):

Columns and labels:
[1] = test system: C. neoformans; conditions: in vitro, maximal inhibition
[2] = test system: imiquimod-induced dermatitis; test: Imiquimod-induced psoriasiform dermatitis in mice, topical ointment; assay type: in vivo
[3] = test system: A549 (lung cancer) cell line; test: Cell viability, WST-1 assay, A549 cells; assay type: cell-based; conditions: 48 and 72 hours, WST-1, FIGS. 1 and 2
[4] = test system: PC3 (prostate cancer) cell line; test: Cell viability, WST-1 assay, PC3 cells; assay type: cell-based; conditions: 48 and 72 hours, WST-1, FIGS. 3 and 4

| SMILES | inhibition of C. neoformans growth (ceiling) [1] | ear thickness (caliper measurements) ([2]; female Balb/C mice, 0.01% ointment topically on ears, started day 5 of imiquimod, FIG. 5) | PASI scoring (erythema, thickening, scaling, cumulative) ([2]; female Balb/C mice, 0.01% ointment topically on ears, started day 5 of imiquimod, FIGS. 6A-D) | efficacy in model of psoriasiform dermatitis ([2]; ointment concentration of 0.01%) | doses reducing cancer cell viability, relative to those required for similar reductions by compound AF [3] | doses reducing cancer cell viability, relative to those required for similar reductions by compound AF [4] |
| --- | --- | --- | --- | --- | --- | --- |
| CCN(CC)CCCC(C)Nc1ccnc2cc(Cl)ccc12 (stereo not drawn) [Chloroquine] | about 40% |  |  |  |  |  |
| c1ccc(Oc2cccc(Cc3nc4cnc5ccccc5c4[nH]3)c2)cc1 [Compound GE, 2-(3-Phenoxybenzyl)-1H-imidazo[4,5-c]quinoline] |  | reduced imiquimod-induced inflammatory damage to mouse ears | reducing all three aspects of dermal inflammation captured by the PASI scoring system | effective | approximately 1/10 | approximately 1/10 |
